Laboratory results published in PubChem BioAssay (NCI).
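All cell lines were grown in 96-well plates and treated with compound for 48 hours. The concentration for 50% growth inhibition is given as GI50. TGI denotes the concentration required for complete inhibition of growth.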

Legend:
Assay in all cases: NCI anticancer screen, dose series, 48 h
UACC-257 melanoma = system: UACC-257 melanoma
K-562 leukemia = system: K-562 leukemia
MDA-MB-231 breast = system: MDA-MB-231 breast
CAKI-1 renal = system: CAKI-1 renal
MCF7 breast = system: MCF7 breast
SK-MEL-28 melanoma = system: SK-MEL-28 melanoma
HT29 colon = system: HT29 colon
HCT-116 colon = system: HCT-116 colon
SK-MEL-5 melanoma = system: SK-MEL-5 melanoma
SF-539 CNS = system: SF-539 CNS
LOX IMVI melanoma = system: LOX IMVI melanoma
DU-145 prostate = system: DU-145 prostate
HOP-62 NSCLC = system: HOP-62 NSCLC
KM12 colon = system: KM12 colon
SF-268 CNS = system: SF-268 CNS
SNB-19 CNS = system: SNB-19 CNS
SK-MEL-2 melanoma = system: SK-MEL-2 melanoma
OVCAR-4 ovarian = system: OVCAR-4 ovarian
HOP-92 NSCLC = system: HOP-92 NSCLC
HCT-15 colon = system: HCT-15 colon
HS 578T breast = system: HS 578T breast
RXF 393 renal = system: RXF 393 renal
NCI-H226 lung = system: NCI-H226 lung
HL-60(TB) leukemia = system: HL-60(TB) leukemia
T-47D breast = system: T-47D breast
A498 renal = system: A498 renal
RPMI-8226 leukemia = system: RPMI-8226 leukemia
A549 NSCLC = system: A549 NSCLC
SW-620 colon = system: SW-620 colon
EKVX NSCLC = system: EKVX NSCLC
NCI-H522 lung = system: NCI-H522 lung
BT-549 breast = system: BT-549 breast
OVCAR-5 ovarian = system: OVCAR-5 ovarian
M14 melanoma = system: M14 melanoma
SF-295 CNS = system: SF-295 CNS
SK-OV-3 ovarian = system: SK-OV-3 ovarian
COLO 205 colon = system: COLO 205 colon
SN12C renal = system: SN12C renal
MDA-MB-435 = system: MDA-MB-435
NCI/ADR-RES ovarian = system: NCI/ADR-RES ovarian
TK-10 renal = system: TK-10 renal
SR leukemia = system: SR leukemia
OVCAR-8 ovarian = system: OVCAR-8 ovarian
NCI-H23 lung = system: NCI-H23 lung
OVCAR-3 ovarian = system: OVCAR-3 ovarian
MOLT-4 leukemia = system: MOLT-4 leukemia
UO-31 renal = system: UO-31 renal
U251 CNS = system: U251 CNS
MALME-3M melanoma = system: MALME-3M melanoma
CCRF-CEM leukemia = system: CCRF-CEM leukemia
IGROV1 ovarian = system: IGROV1 ovarian
ACHN renal = system: ACHN renal
SNB-75 CNS = system: SNB-75 CNS
HCC-2998 colon = system: HCC-2998 colon
786-0 renal = system: 786-0 renal
NCI-H460 lung = system: NCI-H460 lung
PC-3 prostate = system: PC-3 prostate
UACC-62 melanoma = system: UACC-62 melanoma

In the case of `N#C/C(=C\c1cn(Cc2ccccc2)c2ccccc12)C(=O)Nc1ncc(Cc2ccccc2Cl)s1`, the GI50 (UACC-257 melanoma) is reported as 3300 nM, the TGI (UACC-257 melanoma) is reported as > 100000 nM and the GI50 (K-562 leukemia) is reported as 3030 nM. For the same compound, the TGI (K-562 leukemia) was > 100000 nM, the GI50 (MDA-MB-231 breast) was 1930 nM and the TGI (MDA-MB-231 breast) was 4790 nM. The GI50 (CAKI-1 renal) was 1430 nM, the TGI (CAKI-1 renal) was 3750 nM and the GI50 (MCF7 breast) was 3010 nM. For the same compound, the TGI (MCF7 breast) was > 100000 nM, the GI50 (SK-MEL-28 melanoma) was 2360 nM and the TGI (SK-MEL-28 melanoma) was 6740 nM. The GI50 (HT29 colon) was 2660 nM, the TGI (HT29 colon) was > 100000 nM and the GI50 (HCT-116 colon) was 1270 nM. It also gave a TGI (HCT-116 colon) of 3890 nM, a GI50 (SK-MEL-5 melanoma) of 2620 nM and a TGI (SK-MEL-5 melanoma) of 7080 nM. The GI50 (SF-539 CNS) was 1680 nM, the TGI (SF-539 CNS) was 3420 nM and the GI50 (LOX IMVI melanoma) was 4610 nM. For the same compound, the TGI (LOX IMVI melanoma) was 48800 nM, the GI50 (DU-145 prostate) was 2750 nM and the TGI (DU-145 prostate) was > 100000 nM. For the same compound, the GI50 (HOP-62 NSCLC) was 2520 nM, the TGI (HOP-62 NSCLC) was 10400 nM and the GI50 (KM12 colon) was 1890 nM. For the same compound, the TGI (KM12 colon) was 6620 nM, the GI50 (SF-268 CNS) was 2790 nM and the TGI (SF-268 CNS) was 23400 nM. The GI50 (SNB-19 CNS) was 3070 nM, the TGI (SNB-19 CNS) was 17800 nM and the GI50 (SK-MEL-2 melanoma) was 2050 nM. The TGI (SK-MEL-2 melanoma) was 4850 nM, the GI50 (OVCAR-4 ovarian) was 393 nM and the TGI (OVCAR-4 ovarian) was 1610 nM. The GI50 (HOP-92 NSCLC) was 1880 nM, the TGI (HOP-92 NSCLC) was 6000 nM and the GI50 (HCT-15 colon) was 2830 nM. For the same compound, the TGI (HCT-15 colon) was > 100000 nM, the GI50 (HS 578T breast) was 1930 nM and the TGI (HS 578T breast) was 7080 nM. The GI50 (RXF 393 renal) was 2270 nM, the TGI (RXF 393 renal) was 6140 nM and the GI50 (NCI-H226 lung) was 1700 nM. The TGI (NCI-H226 lung) was 5670 nM, the GI50 (HL-60(TB) leukemia) was > 100000 nM and the TGI (HL-60(TB) leukemia) was > 100000 nM. It also gave a GI50 (T-47D breast) of 1690 nM, a TGI (T-47D breast) of 4150 nM and a GI50 (A498 renal) of 1080 nM. For the same compound, the TGI (A498 renal) was 2870 nM, the GI50 (RPMI-8226 leukemia) was 3230 nM and the TGI (RPMI-8226 leukemia) was > 100000 nM. For the same compound, the GI50 (A549 NSCLC) was 1790 nM, the TGI (A549 NSCLC) was 6020 nM and the GI50 (SW-620 colon) was 1520 nM. The TGI (SW-620 colon) was 4200 nM, the GI50 (EKVX NSCLC) was 2820 nM and the TGI (EKVX NSCLC) was 12700 nM. It also gave a GI50 (NCI-H522 lung) of 1800 nM, a TGI (NCI-H522 lung) of 6360 nM and a GI50 (BT-549 breast) of 2940 nM. For the same compound, the TGI (BT-549 breast) was 11600 nM, the GI50 (OVCAR-5 ovarian) was 1700 nM and the TGI (OVCAR-5 ovarian) was 4590 nM. The GI50 (M14 melanoma) was 2520 nM, the TGI (M14 melanoma) was 10400 nM and the GI50 (SF-295 CNS) was 2360 nM. The TGI (SF-295 CNS) was 6870 nM, the GI50 (SK-OV-3 ovarian) was 1800 nM and the TGI (SK-OV-3 ovarian) was 4660 nM. For the same compound, the GI50 (COLO 205 colon) was 1140 nM, the TGI (COLO 205 colon) was 2810 nM and the GI50 (SN12C renal) was 1570 nM. For the same compound, the TGI (SN12C renal) was 3880 nM, the GI50 (MDA-MB-435) was 1790 nM and the TGI (MDA-MB-435) was 4720 nM. The GI50 (NCI/ADR-RES ovarian) was 2680 nM, the TGI (NCI/ADR-RES ovarian) was 13300 nM and the GI50 (TK-10 renal) was 1930 nM. It also gave a TGI (TK-10 renal) of 4200 nM, a GI50 (SR leukemia) of 1110 nM and a TGI (SR leukemia) of 3580 nM. The GI50 (OVCAR-8 ovarian) was 1350 nM, the TGI (OVCAR-8 ovarian) was 3130 nM and the GI50 (NCI-H23 lung) was 1710 nM. For the same compound, the TGI (NCI-H23 lung) was 4080 nM, the GI50 (OVCAR-3 ovarian) was 1560 nM and the TGI (OVCAR-3 ovarian) was 3620 nM. For the same compound, the GI50 (MOLT-4 leukemia) was 2490 nM, the TGI (MOLT-4 leukemia) was > 100000 nM and the GI50 (UO-31 renal) was 1460 nM. The TGI (UO-31 renal) was 3180 nM, the GI50 (U251 CNS) was 1360 nM and the TGI (U251 CNS) was 2920 nM. For the same compound, the GI50 (MALME-3M melanoma) was 1780 nM, the TGI (MALME-3M melanoma) was 4140 nM and the GI50 (CCRF-CEM leukemia) was 2510 nM. The TGI (CCRF-CEM leukemia) was > 100000 nM, the GI50 (IGROV1 ovarian) was 1930 nM and the TGI (IGROV1 ovarian) was 5570 nM. It also gave a GI50 (ACHN renal) of 823 nM, a TGI (ACHN renal) of 2140 nM and a GI50 (SNB-75 CNS) of 1500 nM. The TGI (SNB-75 CNS) was 4540 nM, the GI50 (HCC-2998 colon) was 3230 nM and the TGI (HCC-2998 colon) was > 100000 nM. The GI50 (786-0 renal) was 1510 nM, the TGI (786-0 renal) was 3110 nM and the GI50 (NCI-H460 lung) was 530 nM. For the same compound, the TGI (NCI-H460 lung) was 1990 nM, the GI50 (PC-3 prostate) was 2010 nM and the TGI (PC-3 prostate) was 7480 nM. The GI50 (UACC-62 melanoma) was 1520 nM and the TGI (UACC-62 melanoma) was 3160 nM.
